Experimental data taken from PMC10078150 (2023).

What was measured:
[1] = system: 22_k-ras (DNA, G4) AGGGCGGTGTGGGAATAGGGAA; experiment: fluorescent indicator displacement; conditions: K+ 40 mM (30 mM KCl + potassium phosphate); 10 mM potassium phosphate pH 7, 25 °C; 0.5 µM thiazole orange displaced, 0.25 µM DNA
[2] = system: 21_c-kit2 (DNA, G4) CGGGCGGGCGCGAGGGAGGGG; experiment: fluorescent indicator displacement; conditions: K+ 40 mM (30 mM KCl + potassium phosphate); 10 mM potassium phosphate pH 7, 25 °C; 0.5 µM thiazole orange displaced, 0.25 µM DNA
[3] = system: 26_ds (DNA, duplex) CAATCGGATCGAATTCGATCCGATTG; experiment: fluorescent indicator displacement; conditions: K+ 40 mM (30 mM KCl + potassium phosphate); 10 mM potassium phosphate pH 7, 25 °C; 0.5 µM thiazole orange displaced, 0.25 µM DNA
[4] = system: 22_hTelo (DNA, G4) AGGGTTAGGGTTAGGGTTAGGG; experiment: fluorescent indicator displacement; conditions: K+ 40 mM (30 mM KCl + potassium phosphate); 10 mM potassium phosphate pH 7, 25 °C; 0.5 µM thiazole orange displaced, 0.25 µM DNA
[5] = system: F20T_c-kit2 (DNA, G4) GGGCGGGCGCGAGGGAGGGG; experiment: FRET melting; conditions: K+ 10 mM (potassium phosphate); 10 mM potassium phosphate pH 7; 0.8 µM compound, 0.4 µM DNA, no competitor dsDNA
[6] = system: 22_c-kit1 (DNA, G4) AGGGAGGGCGCTGGGAGGAGGG; experiment: fluorescent indicator displacement; conditions: K+ 40 mM (30 mM KCl + potassium phosphate); 10 mM potassium phosphate pH 7, 25 °C; 0.5 µM thiazole orange displaced, 0.25 µM DNA
[7] = system: F21T_c-myc (DNA, G4) GAGGGTGGGTAGGGTGGGTAA; experiment: FRET melting; conditions: K+ 10 mM (potassium phosphate); 10 mM potassium phosphate pH 7; 0.8 µM compound, 0.4 µM DNA, no competitor dsDNA
[8] = system: 22_c-myc (DNA, G4) TGAGGGTGGGTAGGGTGGGTAA; experiment: fluorescent indicator displacement; conditions: K+ 40 mM (30 mM KCl + potassium phosphate); 10 mM potassium phosphate pH 7, 25 °C; 0.5 µM thiazole orange displaced, 0.25 µM DNA
[9] = system: F21T_hTelo (DNA, G4) GGGTTAGGGTTAGGGTTAGGG; experiment: FRET melting; conditions: K+ 10 mM (potassium phosphate); 10 mM potassium phosphate pH 7; 0.8 µM compound, 0.4 µM DNA, no competitor dsDNA
[10] = system: F21T_k-ras (DNA, G4) GGGCGGTGTGGGAATAGGGAA; experiment: FRET melting; conditions: K+ 10 mM (potassium phosphate); 10 mM potassium phosphate pH 7; 0.8 µM compound, 0.4 µM DNA, no competitor dsDNA
[11] = system: F21T_c-kit1 (DNA, G4) GGGAGGGCGCTGGGAGGAGGG; experiment: FRET melting; conditions: K+ 10 mM (potassium phosphate); 10 mM potassium phosphate pH 7; 0.8 µM compound, 0.4 µM DNA, no competitor dsDNA

A DC50 [1] of 420 ± 20 nM, a DC50 [2] of 1050 ± 40 nM and a DC50 [3] of 3800 ± 200 nM were found for `C(=N\[C@H](COCc1ccc(-c2ccccn2)nc1)c1ccccc1)/c1ccccn1.C(=N\[C@H](COCc1ccc(-c2ccccn2)nc1)c1ccccc1)/c1ccccn1.C(=N\[C@H](COCc1ccc(-c2ccccn2)nc1)c1ccccc1)/c1ccccn1.[Fe+2].[Fe+2]` in this work. The DC50 [4] was 2200 ± 100 nM, the ΔTm [5] was 19.8 °C and the DC50 [6] was 960 ± 40 nM. The ΔTm [7] was 11.7 °C, the DC50 [8] was 530 ± 20 nM and the ΔTm [9] was 27.6 °C.

A DC50 [1] of 450 ± 20 nM, a ΔTm [10] of 21.0 °C and a DC50 [2] of 850 ± 50 nM were found for `C(=N\[C@@H](COCc1ccc(-c2ccccn2)nc1)c1ccccc1)/c1ccc(OCc2cn(Cc3ccccc3)nn2)cn1.C(=N\[C@@H](COCc1ccc(-c2ccccn2)nc1)c1ccccc1)/c1ccc(OCc2cn(Cc3ccccc3)nn2)cn1.C(=N\[C@@H](COCc1ccc(-c2ccccn2)nc1)c1ccccc1)/c1ccc(OCc2cn(Cc3ccccc3)nn2)cn1.[Fe+2].[Fe+2]` in this work. The DC50 [3] was 3900 ± 200 nM, the DC50 [4] was 1060 ± 30 nM and the DC50 [6] was 870 ± 20 nM. For the same compound, the DC50 [8] was 400 ± 30 nM, the ΔTm [9] was 24.6 °C and the ΔTm [11] was 23.7 °C.

A DC50 [1] of 650 ± 30 nM, a DC50 [2] of 1260 ± 60 nM and a DC50 [3] of 5300 ± 300 nM were found for `C(=N\[C@@H](COCc1ccc(-c2ccccn2)nc1)c1ccccc1)/c1ccccn1.C(=N\[C@@H](COCc1ccc(-c2ccccn2)nc1)c1ccccc1)/c1ccccn1.C(=N\[C@@H](COCc1ccc(-c2ccccn2)nc1)c1ccccc1)/c1ccccn1.[Fe+2].[Fe+2]` in this work. It also gave a DC50 [4] of 1950 ± 90 nM, a DC50 [6] of 1410 ± 30 nM and a DC50 [8] of 800 ± 40 nM. The ΔTm [11] was 27.2 °C.

A DC50 [1] of 270 ± 10 nM, a ΔTm [10] of 41.8 °C and a DC50 [2] of 780 ± 50 nM were found for `C(=N\[C@H](COCc1ccc(-c2ccccn2)nc1)c1ccccc1)/c1ccc(OCc2cn(Cc3ccccc3)nn2)cn1.C(=N\[C@H](COCc1ccc(-c2ccccn2)nc1)c1ccccc1)/c1ccc(OCc2cn(Cc3ccccc3)nn2)cn1.C(=N\[C@H](COCc1ccc(-c2ccccn2)nc1)c1ccccc1)/c1ccc(OCc2cn(Cc3ccccc3)nn2)cn1.[Fe+2].[Fe+2]` in this work. It also gave a DC50 [3] of 2600 ± 100 nM, a DC50 [4] of 1050 ± 50 nM and a ΔTm [5] of 11.9 °C. For the same compound, the DC50 [6] was 790 ± 30 nM, the ΔTm [7] was 5.2 °C and the DC50 [8] was 300 ± 30 nM.
